This assay has as its target full-length ATR (Homo sapiens (Human), UniProt Q13535). The experiment in a line: ATR Inhibition Assay (radioactive-phosphate incorporation). Format: biochemical. The settings on record: read-out: ATR Ki. Put shortly:
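Full-length human ATR (5 nM) was assayed at 25 °C in 50 mM Tris/HCl pH 7.5, 10 mM MgCl2, 1 mM DTT, with 10 μM [γ-33P]ATP and 800 μM peptide, after 10-min compound preincubation. Reactions were stopped after 24 h, captured on phosphocellulose and counted; Ki(app) came from non-linear regression of initial rates.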

Chain of full-length ATR (Q13535 whole entry): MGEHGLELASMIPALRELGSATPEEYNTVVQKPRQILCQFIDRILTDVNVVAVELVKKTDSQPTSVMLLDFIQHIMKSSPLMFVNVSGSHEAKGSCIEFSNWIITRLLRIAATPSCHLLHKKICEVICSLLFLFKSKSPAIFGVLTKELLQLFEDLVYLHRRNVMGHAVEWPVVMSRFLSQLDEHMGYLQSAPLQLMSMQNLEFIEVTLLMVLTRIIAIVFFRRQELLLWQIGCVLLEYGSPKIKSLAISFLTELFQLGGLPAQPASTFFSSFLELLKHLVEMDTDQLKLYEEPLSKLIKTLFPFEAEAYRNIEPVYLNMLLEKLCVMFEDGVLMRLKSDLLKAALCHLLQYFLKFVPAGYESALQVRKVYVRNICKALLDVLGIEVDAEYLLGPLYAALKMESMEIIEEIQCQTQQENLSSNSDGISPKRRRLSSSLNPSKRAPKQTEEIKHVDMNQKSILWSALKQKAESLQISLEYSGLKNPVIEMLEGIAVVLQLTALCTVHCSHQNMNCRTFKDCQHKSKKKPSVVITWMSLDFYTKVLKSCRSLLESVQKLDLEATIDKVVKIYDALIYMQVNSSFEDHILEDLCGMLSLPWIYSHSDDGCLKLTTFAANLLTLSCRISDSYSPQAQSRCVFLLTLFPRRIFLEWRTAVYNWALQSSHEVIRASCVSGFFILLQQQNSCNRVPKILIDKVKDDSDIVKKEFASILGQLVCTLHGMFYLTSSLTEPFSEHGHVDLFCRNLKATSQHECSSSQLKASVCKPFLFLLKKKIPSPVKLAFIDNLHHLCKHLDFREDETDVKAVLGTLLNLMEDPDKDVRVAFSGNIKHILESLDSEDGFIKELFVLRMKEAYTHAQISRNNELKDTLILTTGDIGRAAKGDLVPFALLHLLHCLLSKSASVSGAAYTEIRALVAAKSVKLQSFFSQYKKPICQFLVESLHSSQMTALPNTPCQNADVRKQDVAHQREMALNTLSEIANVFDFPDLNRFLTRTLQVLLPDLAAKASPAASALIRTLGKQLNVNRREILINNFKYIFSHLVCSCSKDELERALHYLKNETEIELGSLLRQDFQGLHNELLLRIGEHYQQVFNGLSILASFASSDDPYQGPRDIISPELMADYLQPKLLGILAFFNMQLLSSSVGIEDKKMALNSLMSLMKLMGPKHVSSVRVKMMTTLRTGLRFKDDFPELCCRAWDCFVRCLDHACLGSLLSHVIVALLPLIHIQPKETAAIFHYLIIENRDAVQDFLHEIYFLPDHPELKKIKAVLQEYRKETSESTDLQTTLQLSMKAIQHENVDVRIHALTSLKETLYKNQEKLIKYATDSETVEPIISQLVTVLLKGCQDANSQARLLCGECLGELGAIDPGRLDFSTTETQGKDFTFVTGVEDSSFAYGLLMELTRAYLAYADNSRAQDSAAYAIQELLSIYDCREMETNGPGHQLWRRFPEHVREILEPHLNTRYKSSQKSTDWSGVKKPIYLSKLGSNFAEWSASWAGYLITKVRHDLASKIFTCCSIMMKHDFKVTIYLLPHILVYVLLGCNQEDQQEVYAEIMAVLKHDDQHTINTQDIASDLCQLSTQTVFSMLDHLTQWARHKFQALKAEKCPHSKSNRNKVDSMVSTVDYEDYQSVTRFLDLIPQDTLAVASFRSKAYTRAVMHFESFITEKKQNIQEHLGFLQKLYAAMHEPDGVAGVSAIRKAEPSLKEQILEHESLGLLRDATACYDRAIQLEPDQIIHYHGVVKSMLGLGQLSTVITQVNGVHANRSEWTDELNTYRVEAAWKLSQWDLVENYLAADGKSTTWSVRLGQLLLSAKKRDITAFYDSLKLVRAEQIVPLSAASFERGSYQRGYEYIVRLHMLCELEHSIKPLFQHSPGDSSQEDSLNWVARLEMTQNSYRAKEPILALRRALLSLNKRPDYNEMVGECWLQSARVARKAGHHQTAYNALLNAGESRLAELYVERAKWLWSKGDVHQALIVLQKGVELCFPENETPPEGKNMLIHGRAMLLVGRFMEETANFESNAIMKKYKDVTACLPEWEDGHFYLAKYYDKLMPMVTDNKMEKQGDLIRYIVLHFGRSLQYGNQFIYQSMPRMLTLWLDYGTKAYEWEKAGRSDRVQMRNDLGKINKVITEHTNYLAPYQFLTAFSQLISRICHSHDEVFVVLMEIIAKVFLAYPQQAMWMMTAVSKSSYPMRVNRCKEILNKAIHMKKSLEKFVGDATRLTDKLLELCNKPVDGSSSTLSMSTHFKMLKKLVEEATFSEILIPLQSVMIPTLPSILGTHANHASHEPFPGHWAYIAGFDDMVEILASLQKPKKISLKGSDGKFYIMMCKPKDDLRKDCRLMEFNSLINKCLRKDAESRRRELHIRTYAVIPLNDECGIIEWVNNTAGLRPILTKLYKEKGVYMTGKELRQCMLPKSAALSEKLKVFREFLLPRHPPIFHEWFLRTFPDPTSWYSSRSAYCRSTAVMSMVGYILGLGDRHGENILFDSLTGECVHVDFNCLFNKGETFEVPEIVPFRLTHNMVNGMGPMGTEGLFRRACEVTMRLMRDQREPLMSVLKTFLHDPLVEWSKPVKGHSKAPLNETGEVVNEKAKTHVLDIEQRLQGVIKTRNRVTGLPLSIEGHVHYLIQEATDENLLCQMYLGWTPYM

As a reminder, the Ki is the dissociation constant of the complex between target and ligand, obtained from inhibition or displacement. Consider `N#Cc1cccn1-c1cnc(N)c(-c2nnc(-c3ccccc3)o2)n1` [IA-264, 1-[5-amino-6-(5-phenyl-1,3,4-oxadiazol-2-yl)pyrazin-2-yl]pyrrole-2-carbonitrile], for which the inhibition constant Ki was at most 10 nM. As for `Nc1ncc(-c2ccc(C(=O)NCCN3CCCC3)cc2)nc1-c1nc2ccccc2[nH]1` [Compound I-133, 4-(5-amino-6-(1H-benzo[d]imidazol-2-yl)pyrazin-2-yl)-N-(2-(pyrrolidin-1-yl)ethyl)benzamide], the figure is 10 to 100 nM; as for `CC(C)S(=O)(=O)c1ccc(-c2cnc(N)c(-c3nnc(-c4ccc(CNC[C@@H](C)O)cc4F)o3)n2)cc1` [IA-341, (R)-1-(4-(5-(3-amino-6-(4-(isopropylsulfonyl)phenyl)pyrazin-2-yl)-1,3,4-oxadiazol-2-yl)-3-fluorobenzylamino)propan-2-ol], at most 10 nM; as for `CNCc1ccc(-c2nnc(-c3nc(-c4ccc(S(=O)(=O)N(C)C)cc4)cnc3N)o2)cc1` [IA-296, 4-[5-amino-6-[5-[4-(methylaminomethyl)phenyl]-1,3,4-oxadiazol-2-yl]pyrazin-2-yl]-N,N-dimethyl-benzenesulfonamide], at most 10 nM. As for `CN(C)C(=O)c1ccc(-c2cnc(N)c(-c3nnc(C4CC4)o3)n2)cc1` [IA-101, 4-[5-amino-6-(5-cyclopropyl-1,3,4-oxadiazol-2-yl)pyrazin-2-yl]-N,N-dimethyl-benzamide], the figure is 100 to 5000 nM; as for `CC(C)S(=O)(=O)c1ccc(-c2cnc(N)c(-c3nnc(-c4ccc(CNC5CC5)cc4)o3)n2)cc1` [IA-158, 3-[5-[4-[(cyclopropylamino)methyl]phenyl]-1,3,4-oxadiazol-2-yl]-5-(4-isopropylsulfonylphenyl)pyrazin-2-amine], at most 10 nM. Consider `Nc1ncc(-c2ccc3[nH]ncc3c2)nc1C(=O)Nc1ccccc1` [Compound I-39, 3-amino-6-(1H-indazol-5-yl)-N-phenylpyrazine-2-carboxamide], for which the Ki was in the range of 10 to 100 nM.

For `CC(=O)Nc1ccccc1-c1cnc(N)c(-c2nnc(-c3ccccc3)o2)n1` [IA-267, N-(2-(5-amino-6-(5-phenyl-1,3,4-oxadiazol-2-yl)pyrazin-2-yl)phenyl)ethanamide], the Ki is 10 to 100 nM.

For the compound `CC(C)S(=O)(=O)c1ccc(-c2cnc(N)c(-c3nnc(-c4ccc(CCN)cc4)o3)n2)cc1` [IA-107, 3-[5-[4-(2-aminoethyl)phenyl]-1,3,4-oxadiazol-2-yl]-5-(4-isopropylsulfonylphenyl)pyrazin-2-amine], the Ki was at most 10 nM. On to `Nc1ncc(-c2ccc(F)c(C(=O)N3CCOCC3)c2)nc1-c1nc2ccccc2[nH]1` [Compound I-131, (5-(5-amino-6-(1H-benzo[d]imidazol-2-yl)pyrazin-2-yl)-2-fluorophenyl) (morpholino)methanone], for which the Ki was 10 to 100 nM. The figure for `C[S+]([O-])c1ccccc1-c1cnc(N)c(-c2nnc(-c3cccc(CN)c3)o2)n1` (stereo not shown) [IA-257, 3-[5-[3-(aminomethyl)phenyl]-1,3,4-oxadiazol-2-yl]-5-(2-methylsulfinylphenyl)pyrazin-2-amine] is at most 10 nM; for `Nc1ncc(-c2ccc(C(=O)N3CCCNCC3)cc2)nc1C(=O)Nc1ccc2cn[nH]c2c1` [Compound V-4] it is 10 to 100 nM; for `COc1ccc2nc(-c3nc(-c4ccc(S(C)(=O)=O)cc4)cnc3N)[nH]c2c1` [Compound I-115, 3-(6-methoxy-1H-benzo[d]imidazol-2-yl)-5-(4-(methylsulfonyl)phenyl) pyrazin-2-amine] it is 10 to 100 nM. Turning to `CC(C)S(=O)(=O)c1ccc(-c2cnc(N)c(-c3nnc(C4=CCNCC4)o3)n2)cc1` [IA-232, 5-(4-isopropylsulfonylphenyl)-3-[5-(1,2,3,6-tetrahydropyridin-4-yl)-1,3,4-oxadiazol-2-yl]pyrazin-2-amine], the Ki fell in the range of 10 to 100 nM. In the case of `CS(=O)(=O)c1cccc(-c2cnc(N)c(-c3nc4ccccc4[nH]3)n2)c1` [Compound I-122, 3-(1H-benzo[d]imidazol-2-yl)-5-(3-(methylsulfonyl)phenyl)pyrazin-2-amine], the Ki was 10 to 100 nM. Take `CN(C)C(=O)c1ccc(-c2cnc(N)c(-c3nnc(-c4cccc(O)c4)o3)n2)cc1` [IA-85, 4-[5-amino-6-[5-(3-hydroxyphenyl)-1,3,4-oxadiazol-2-yl]pyrazin-2-yl]-N,N-dimethyl-benzamide]: the Ki lay within 10 to 100 nM. The figure for `Nc1ncc(-c2cc(F)c(C(=O)N3CCCNCC3)c(F)c2)nc1-c1nnc(-c2ccccc2)o1` [IA-38] is 10 to 100 nM; for `Nc1ncc(-c2cccnc2)nc1C(=O)Nc1cccc2cc[nH]c12` [Compound I-83, 3-amino-N-(1H-indol-7-yl)-6-(pyridin-3-yl)pyrazine-2-carboxamide] it is 100 to 5000 nM; for `N#Cc1cnccc1-c1cnc(N)c(C(=O)Nc2nc3ccccc3[nH]2)n1` [Compound V-3] it is at most 10 nM. As for `C[C@H](Nc1nnc(-c2nc(-c3ccc(C(=O)N(C)C)cc3)cnc2N)o1)c1ccc(Cl)cc1` [IA-129, 4-[5-amino-6-[5-[[(1 S)-1-(4-chlorophenyl)ethyl]amino]-1,3,4-oxadiazol-2-yl]pyrazin-2-yl]-N,N-dimethyl-benzamide], the figure is 10 to 100 nM; as for `CC(=O)OCc1ccc(-c2nnc(-c3nc(-c4ccc(C(=O)N(C)C)cc4)cnc3N)o2)cc1` [IA-131, [4-[5-[3-amino-6-[4-(dimethylcarbamoyl)phenyl]pyrazin-2-yl]-1,3,4-oxadiazol-2-yl]phenyl]methyl acetate], 10 to 100 nM.

With `Nc1ncc(-c2ccc(C(=O)N3CCC(N4CCCC4)CC3)cc2)nc1C(=O)Nc1ccccc1` [Compound I-71, 3-amino-N-phenyl-6-(4-(4-(pyrrolidin-1-yl)piperidine-1-carbonyl)phenyl) pyrazine-2-carboxamide], the Ki fell in the range of 10 to 100 nM.

For the compound `Nc1ncc(-c2cccnc2)nc1C(=O)Nc1ccncc1` [Compound I-98, 3-amino-6-(pyridin-3-yl)-N-(pyridin-4-yl)pyrazine-2-carboxamide], the Ki was in the range of 100 to 5000 nM. As for `NC(=O)c1ccc(NC(=O)c2nc(-c3cccnc3)cnc2N)cc1` [Compound I-92, 3-amino-N-(4-carbamoylphenyl)-6-(pyridin-3-yl)pyrazine-2-carboxamide], the Ki was 100 to 5000 nM.

For the compound `Nc1ncc(-c2ccccc2C(F)(F)F)nc1-c1nnc(-c2ccccc2)o1` [IA-174, 3-(5-phenyl-1,3,4-oxadiazol-2-yl)-5-[2(-trifluoromethyl)phenyl]pyrazin-2-amine], the Ki lay within 100 to 5000 nM.

As for `CCNCc1ccc(-c2nnc(-c3nc(-c4ccc(S(=O)(=O)C(C)C)cc4)cnc3N)o2)s1` [IA-83, 3-[5-[5-(ethylaminomethyl)-2-thienyl]-1,3,4-oxadiazol-2-yl]-5-(4-isopropylsulfonylphenyl)pyrazin-2-amine], the Ki was at most 10 nM. The figure for `Nc1ncc(-c2ccc(C(=O)N3CCOCC3)cc2)nc1-c1nnc(-c2ccccc2)o1` [IA-13] is 10 to 100 nM; for `CC(C)S(=O)(=O)c1ccc(-c2cnc(N)c(-c3nnc(NC(=O)C(C)(C)N)o3)n2)cc1` [IA-219, 2-amino-N-[5-[3-amino-6-(4-isopropylsulfonylphenyl)pyrazin-2-yl]-1,3,4-oxadiazol-2-yl]-2-methyl-propanamide] it is 100 to 5000 nM. The figure for `CN(C)C(=O)c1ccc(-c2cnc(N)c(-c3nnc(-c4cccnc4)o3)n2)cc1` [IA-41] is 10 to 100 nM; for `COCCN(C)C(=O)c1ccc(-c2cnc(N)c(-c3nnc(-c4ccccc4)o3)n2)cc1` [IA-14] it is at most 10 nM; for `CN(C)C(=O)c1ccc(-c2cnc(N)c(-c3nnc(-c4cccc(N)n4)o3)n2)cc1` [IA-231, 4-[5-amino-6-[5-(6-amino-2-pyridyl)-1,3,4-oxadiazol-2-yl]pyrazin-2-yl]-N,N-dimethyl-benzamide] it is 10 to 100 nM. The figure for `CNCc1ccc(-c2nnc(-c3nc(-c4ccc(S(=O)(=O)C5COC5)cc4)cnc3N)o2)cc1` [IA-308, 3-[5-[4-(methylaminomethyl)phenyl]-1,3,4-oxadiazol-2-yl]-5-[4-(oxetan-3-ylsulfonyl)phenyl]pyrazin-2-amine] is at most 10 nM; for `CN(C)C(=O)c1ccc(-c2cnc(N)c(-c3nnc(-c4ccccc4)o3)n2)cc1` [IA-23, 4-(5-amino-6-(5-phenyl-1,3,4-oxadiazol-2-yl)pyrazin-2-yl)-N,N-dimethylbenzamide] it is at most 10 nM; for `CC#Cc1cc(C(=O)N(C)C)ccc1-c1cnc(N)c(-c2nnc(-c3ccccc3)o2)n1` [IA-268, 4-[5-amino-6-(5-phenyl-1,3,4-oxadiazol-2-yl)pyrazin-2-yl]-N,N-dimethyl-3-prop-1-ynyl-benzamide] it is 10 to 100 nM. On to `Nc1ncc(-c2cccc(C(=O)N3CCCC3)c2)nc1C(=O)Nc1ccccc1` [Compound I-63, 3-amino-N-phenyl-6-(3-(pyrrolidine-1-carbonyl)phenyl)pyrazine-2-carboxamide], for which the Ki was in the range of 100 to 5000 nM.

For the compound `CNCc1ccc(-c2nnc(-c3nc(-c4ccc(S(=O)(=O)C(C)C)cc4)cnc3N)o2)s1` [IA-140, 5-(4-isopropylsulfonylphenyl)-3-[5-[5-(methylaminomethyl)-2-thienyl]-1,3,4-oxadiazol-2-yl]pyrazin-2-amine], the Ki is at most 10 nM. Turning to `CC(C)S(=O)(=O)c1ccc(-c2cnc(N)c(-c3nnc(C(=O)N4CCCNCC4)o3)n2)cc1` [IA-79, [5-[3-amino-6-(4-isopropylsulfonylphenyl)pyrazin-2-yl]-1,3,4-oxadiazol-2-yl]-(1,4-diazepan-1-yl)methanone], the Ki is 10 to 100 nM. As for `Nc1ncc(-c2cccc3ccsc23)nc1-c1nnc(-c2ccccc2)o1` [IA-259, 5-(benzothiophen-7-yl)-3-(5-phenyl-1,3,4-oxadiazol-2-yl)pyrazin-2-amine], the figure is 10 to 100 nM. For `CN(C)C(=O)c1ccc(-c2cnc(N)c(-c3nnc(Nc4cccnc4)o3)n2)cc1` [IA-44], the Ki was 10 to 100 nM. `Cc1ccsc1-c1nnc(-c2nc(-c3ccccc3[S+](C)[O-])cnc2N)o1` (stereo not shown) [IA-179, 5-(2-methylsulfinylphenyl)-3-[5-(3-methyl-2-thienyl)-1,3,4-oxadiazol-2-yl]pyrazin-2-amine]: the Ki was at most 10 nM.
